Assay results as given in the NIST ThermoML archive (doi:10.1016/j.jct.2008.10.008).

Tests used:
[1] = Crystal; Adiabatic calorimetry
[2] = Molar enthalpy of transition or fusion; conditions: Crystal
[3] = molar heat capacity at saturation pressure

CC(C)(C)c1ccccc1 [(1,1-dimethylethyl)benzene]
Conditions	Molar enthalpy of transition or fusion [kcal/mol]	Triple point temperature [K]
[1]	–	215.31
[2]	2.0062	–

molar heat capacity [J/K/mol], [3]
Conditions	Crystal	Liquid
5 K	0.72	–
5.009 K	0.72	–
5.752 K	1.09	–
6.678 K	1.68	–
7.653 K	2.44	–
8.667 K	3.35	–
9.709 K	4.46	–
10 K	4.79	–
10.84 K	5.76	–
12.09 K	7.28	–
13.47 K	9.104	–
14.96 K	11.15	–
16.6 K	13.48	–
18.41 K	16.04	–
20 K	18.27	–
20.41 K	18.84	–
22.63 K	21.93	–
25.1 K	25.19	–
27.86 K	28.67	–
30 K	31.19	–
30.93 K	32.24	–
34.35 K	35.9	–
38.17 K	39.64	–
40 K	41.3	–
42.44 K	43.41	–
47.2 K	47.28	–
50 K	49.43	–
52.43 K	51.23	–
53.45 K	51.95	–
58.21 K	55.36	–
58.43 K	55.52	–
60 K	56.6	–
64.04 K	59.39	–
70 K	63.57	–
70.32 K	63.81	–
77.32 K	68.59	–
80 K	70.45	–
84.98 K	73.93	–
87.08 K	75.43	–
90 K	77.44	–
93.34 K	79.79	–
93.37 K	79.85	–
100 K	84.51	–
101.27 K	85.43	–
102.4 K	86.21	–
110.41 K	91.89	–
111.86 K	92.92	–
120 K	98.68	–
120.01 K	98.72	–
129.8 K	105.69	–
139.62 K	112.79	–
140 K	113.02	–
149.52 K	119.99	–
160 K	127.65	–
160.53 K	128.13	–
162.39 K	129.37	–
172.82 K	137.16	–
173.48 K	137.69	–
180 K	142.42	–
185.83 K	147.07	–
186.21 K	147.43	–
197.14 K	156.12	–
200 K	157.51	–
203.2 K	162.61	–
206.78 K	167.05	–
215.31 K	169.1	208.01
220 K	–	209.58
223.09 K	–	210.65
223.25 K	–	210.68
232.46 K	–	213.79
232.58 K	–	213.79
240 K	–	216.6
240.86 K	–	216.97
253.04 K	–	221.76
260 K	–	224.65
265.37 K	–	226.92
277.79 K	–	232.27
280 K	–	233.26
291.32 K	–	238.42
294.64 K	–	239.95
298.15 K	–	241.59
300 K	–	242.45
305.81 K	–	245.17
311.47 K	–	247.82
320 K	–	251.92
329.17 K	–	256.4
330 K	–	256.8
340 K	–	261.71
347.61 K	–	265.47
360 K	–	271.66
365.98 K	–	274.65
380 K	–	281.68
384.21 K	–	283.78
400 K	–	291.7
402.17 K	–	292.78
419.78 K	–	301.62
420 K	–	301.72
435.18 K	–	309.12
440 K	–	311.52
